Patent publication US8299119B2, “Biologically active compounds” (Bio-Active Export Pty. Ltd., priority 2005, dated 2012)
In brackets after ≈: the same amount, converted by molar mass.

Assays:
[1] = system: prostaglandin E2 production in 3T3 Swiss Albino fibroblast cells; experiment: Inhibition of prostaglandin E2 production in calcium ionophore stimulated cells; type: cell-based; parameters: Anti-inflammatory capacity, Average (PGE2 assay): unit: %; details: for IC50: range of concentrations, read-out: IC 50 values, Average (PGE2 assay); for dose response in PGE2 assay: over the concentration range tested
Procedure: Samples were tested for their ability to inhibit prostaglandin E2 production in cells stimulated by a calcium ionophore, compared to stimulated cells not exposed to any sample. Inhibition was tested over a range of 3 concentrations, although a dose response was not observed for most samples. This is probably because the samples are very efficient at inhibiting PGE2 production and the range of concentrations used was too narrow. The data presented are the maximal inhibition of PGE2 observed for a given sample.
3T3 Swiss Albino fibroblast cell suspension (Phenol-red free DMEM with 10% FBS and 2 mM L-glutamine) was plated out into 96-well tissue culture plates (1×10^5 cells/mL, 100 μL/well). The cells were cultured overnight at 37° C., 5% CO2. […] Cells+samples were incubated (37° C., 3 hours), before the addition of calcium ionophore A23187. Following 20 min incubation, the plate was centrifuged (1000 g, 3 min) and the supernatants were removed. Included on the plate was a positive control (aspirin; 100 μM), and DMSO control, both with and without calcium ionophore A23187.
The supernatants were diluted by serial dilution (1:500) in enzyme immunoassay (EIA) buffer, and assayed for PGE2 using the Prostaglandin E2 EIA Monoclonal Kit (Cayman Chemical; Cat No. 514010), according to manufacturers' instructions.

[2] = ORAC (oxygen radical absorbance capacity) assay; details: for ORAC value: Centipeda fractions, Table 7; for Antioxidant capacity (ORAC): pure compounds, Table 13
Procedure: The antioxidant capacity of the Centipeda fractions was measured using the ORAC procedure (Oxygen Radical Absorbance Capacity). A water soluble analogue of vitamin E, Trolox, was used as a reference standard, and the ORAC value is expressed as μmol of trolox equivalence (TE) per gram of sample extract.
The ORAC assay employed in this study measured the antioxidant scavenging activity in the test samples, against peroxyl radicals induced by 2,2′-azobis(2-amidinopropane)dihydrochloride (AAPH) at 37° C. Fluorescein was used as the fluorescent probe. The method used is based on that of Huang et al.^1, Huang et al.^2 and Prior et al.^3 ^1 Huang et al., 2002. Journal of Agricultural and Food Chemistry 50(16): 1815-1821.^2 Huang et al., 2002. Journal of Agricultural and Food Chemistry 50(16): 4437-4444.^3 Prior et al., 2003. Journal of Agricultural and Food Chemistry 51(11): 3273-3279.
All samples were assayed using the hydrophilic ORAC procedure in serial dilution×4 with acetone:water:acetic acid; 70:29.5:0.5 (A:W:A,) and in quadruplicate, starting with the concentration relevant to the sample, depending on the approximated antioxidant capacity from an initial screen.
Trolox, a water soluble analogue of vitamin E, was used as a reference standard. A trolox standard curve was established from trolox standards prepared at 100, 50, 25, and 12.5 μM in A:W:A.
Briefly, 10 μL fluorescein (6.0×10^−7 M), 20 μL samples/standards/control/blank (A:W:A) and 170 μL […] (20 mM) were added per well. Immediately after loading, the plate was transferred to the plate reader preset to 37° C., and the fluorescence was measured 35 times at one minute intervals. The fluorescence readings were referenced to solvent blank wells. The final ORAC values were calculated using a regression equation between the Trolox concentration and the net area under the fluorescein decay curve, and where possible were expressed as Trolox equivalents (TE) as micromoles per gram of sample.

SMILES | Anti-inflammatory capacity, Average (PGE2 assay) ([1]; 100 μM, positive control) | inhibition at 10 µM ([1]; Fibroblast, 0.01 mM, positive control, read-out: % inhibition of PGE2 production ± SEM) [%] | Anti-inflammatory capacity, Average (PGE2 assay) ([1]; 5.0 μg/mL) | IC50 ([1]; Fibroblast) [µg/mL] | inhibition at 125 µg/mL ([1]; Fibroblast, sample 0.125 mg/mL, maximal inhibition observed, read-out: % inhibition of PGE2 production ± SEM) [%] | ORAC value [2] | Antioxidant capacity (ORAC) [2] [TE/g extract] | dose response in PGE2 assay [1] | inhibition at 62.5 µg/mL ([1]; Fibroblast, sample 0.0625 mg/mL, maximal inhibition observed, read-out: % inhibition of PGE2 production ± SEM) [%]
CC(=O)Oc1ccccc1C(=O)O [Aspirin, aspirin, reference compound] | 54.6 | 57.4 ± 14.4 |  |  |  |  |  |  | 
COc1c(O)cc2oc(-c3ccc(O)cc3O)c(OC3OC(CO)C(O)C(O)C3O)c(=O)c2c1O (single isomer, unassigned) [Compound 1, 2′,4′,5,7-tetrahydroxy-6-methoxyflavone-3-O-β-glucopyranoside] |  |  | 52.2 | 1.47 (≈ 2.97 µM) | 67.8 ± 2.86 | 3871.9 μmol TE/g of extract | 12178 |  | 
COC(=O)/C(O)=C/C(OC(=O)/C=C/c1ccc(O)c(O)c1)C(OC(=O)/C=C/c1ccc(O)c(O)c1)C(O)C(=O)O (stereo not drawn) [Compound 9, 4ξ,5ξ-Di-O-caffeoyl-2,6ξ-dihydroxyhept-2-en-1,7-dioic acid-1-methyl ester] |  |  | 45.00 |  |  |  | 6822 | did not exhibit a standard dose response type curve | 
COC(=O)C(O)C(OC(=O)/C=C/c1ccc(O)c(O)c1)C(/C=C(\O)C(=O)O)OC(=O)/C=C/c1ccc(O)c(O)c1 (stereo not drawn) [Compound 8, 4ξ,5ξ-Di-O-caffeoyl-2,6ξ-dihydroxyhept-2-en-1,7-dioic acid-7-methyl ester] |  |  | 73.50 | 4.73 (≈ 8.44 µM) |  |  | 8122 |  | 
COC(=O)/C(O)=C/C(OC(=O)/C=C/c1ccc(O)c(O)c1)C(OC(=O)/C=C/c1ccc(O)c(O)c1)C(O)C(=O)OC (stereo not drawn) [Compound 10, 4ξ,5ξ-Di-O-caffeoyl-2,6ξ-dihydroxyhept-2-en-1,7-dioic acid-dimethyl ester] |  |  | 73.95 |  |  |  | 3957 | did not exhibit a standard dose response type curve | 
O=C(/C=C/c1ccc(O)c(O)c1)OC(/C=C(\O)C(=O)O)C(OC(=O)/C=C/c1ccc(O)c(O)c1)C(O)C(=O)O (single isomer, unassigned) [Compound 2, 4ξ,5ξ-Di-O-caffeoyl-2,6ξ-dihydroxyhept-2-en-1,7-dioic acid] |  |  | 67.38 | 2.48 (≈ 4.54 µM) |  | 3415.1 μmol TE/g of extract | 13781 |  | 74.5 ± 8.06
